Laboratory results taken from patent publication US7115623B2, “PDE IV inhibitors” (Aska Pharmaceuticals Co., Ltd., priority 2001, dated 2006).

Tests used:
[1] = system: actively sensitized guinea pigs; test: Inhibition of antigen-induced immediate asthmatic response (airway resistance, Konzett-Rossler method); type: in vivo, Male Hartley outbred guinea pigs; details: Cavia porcellus; orally, 60 minutes prior to antigen-challenge, ovalbumin-sensitized guinea pigs, Probit method
Protocol: Male Hartley outbred guinea pigs were sensitized by administering intraperitoneally physiological saline (0.5 ml) containing ovalbumin (1 mg, antigen) and 5×10^9 inactivated Bordetella pertussis dead cells (adjuvant). Eleven to thirteen days after the first sensitization, 0.05 ml of an ovalbumin solution (1 mg/ml) (ovalbumin is dissolved in physiological saline) was administered to the lateroabdominal region of each guinea pig intracutaneously. An establishment of sensitization was checked relying on cutaneous reaction. Only guinea pigs wherein significant reddening responses occurred 5 to 10 minutes later were employed in the next measurement test for airway resistance.
The guinea pigs (3 animals per group) actively sensitized in the above step (1) were employed to measure for their airway pressure according to Konzett-Rossler method (Arch. Exp. Path. Pharmakol., 195, 71 (1940)).
Thirteen days after the final sensitization, guinea pigs fasted overnight, and were on the next day anesthetized with a pentobarbital solution (30 mg/1.2 ml/kg, dissolved in physiological saline, intraperitoneal administration). After the guinea pigs were fixed in a supine position, their trachea was incised followed by insertion with one port of a 4-port cannula. Among the remaining 3 ports, 2 ports were connected to an artificial respirator (Model 683, Harvard). The animals were ventilated with 10 ml/kg of air per ventilation at a rate of 60 beats/min via the artificial respirator from the cannula. One port remainder was connected to a respiratory amplifier (AR-601G, Nihon Kohden, Japan) via an airflow resistance tube (TV-241T, Nihon Kohden, Japan) and a differential pressure transducer (TP-602T, Nihon Kohden, Japan) connected with a control box (RY-111S, Nihon Kohden, Japan). From a catheter inserted into a left carotid artery, blood pressures were monitored with a blood pressure measurement unit (AP641G, NEC Corp., Japan) via a blood pressure transducer (TP-300T, Nihon Kohden, Japan), and heart rates were recorded on a thermal recorder (WT-685G, Nihon Kohden, Japan), relying on blood pressure pulse waves after being led to a cardiograph unit (AT601G, Nihon Kohden, Japan).
After airway pressure became stable, an ovalbumin solution. (1 mg/ml, dissolved in physiological saline) was administered at a dose of 1 ml/kg via a tube with which the right jugular vein of guinea pigs was cannulated.
Each test compound was suspended in 0.5% CMC—Na solution and administered orally with an oral sound at a dose of 0.03 to 20 mg/2 ml/kg 60 minutes prior to the antigen-challenge. Control groups received only 0.5% CMC—Na solution in an equivalent amount. The pentobarbital-anesthetization and tracheal incision were conducted 30 minutes prior to the antigen-challenge.
Each percent reduction of increase in airway resistance (each test compound-administered group versus control group) was calculated according to the equation given below. ED50 was obtained by Probit method.

[2] = system: PDE IV isozymes separated from U937 culture cells; test: PDE IV inhibition ([3H]-cAMP hydrolysis); type: biochemical; details: cAMP 1 μM as substrate, 30° C., 20 minutes, Probit method
Protocol: PDE IV isozymes as used herein were separated from U937 culture cells by using an anion exchange chromatography. Type IV PDE isozyme was admixed with ethylene glycol (EG) to adjust the final EG concentration to 30%, then stored at −20° C. and diluted when used. The enzymatic activity for PDE IV was measured using cAMP as a substrate.
Each test compound was dissolved in DMSO to adjust the final concentration to 1% (2.5 μl/tube). Incubation buffer solution (pH7.5): • Tris-HCl (50 mM), magnesium chloride (6 mM), dithiothreitol (2.5 mM), 5-nucleotidase (4 μg/ml), bovine serum albumin (0.23 mg/ml), and cAMP (1 μM).
A mixture of the aforementioned test compound solution and the buffer solution was incubated at 30° C. for 20 minutes. The reaction was quenched by admixing with 1 ml of anion exchange resin slurry (AG1-X8, 200–400 meshes, chloride form; Bio-Rad) to absorb unreacted substrates. After the reaction stopped, the mixture was centrifuged at 800×g for 10 minutes, and the resulting supernatant was collected with vials in 250 μl aliquots. To each vial was added 5 ml of ACS-II (scintillator, Amersham). The radioactivity was measured with a liquid scintillator counter for [^3H]-adenosine and set as the PDE IV activity.

[3] = system: TNF-α production; test: Inhibition of TNF-α production in galactosamine- and LPS-stimulation; type: in vivo, C3H/HeN mice; details: Mus musculus; oral, 1 hour before i.v. galactosamine 800 mg/kg and LPS 5 μg/kg; serum TNF-α by ELISA 1 hour later
Protocol: A suspension of each test compound in 0.5% CMC—Na solution was administered orally to C3H/HeN mice at a dose of 0.10 to 10 mg/kg. One hour later, the animals received intravenously galactosamine at a dose of 800 mg/kg and LPS at a dose 5 μg/kg to raise the induction of TNF-α production. One hour later after the galactosamine- and LPS-administration, amounts of TNF-α in serum samples were measured by ELISA.

[4] = system: Male Marshall ferrets; test: Emetic action; type: in vivo; details: oral, observed within 12 hours, dose = ED50 of Assay Example 2
Protocol: Male Marshall ferrets (each group consisting of 3 animals) as used herein fasted overnight. On the next day, a suspension of each test compound in 0.5% CMC—Na solution was administered orally to the animals. […] Next, each maximum tolerance dose against emesis was obtained. SB207499 was used for the reference compound in this assay.

[5] = system: ICR mice; test: Toxicology study; type: in vivo; details: oral 300 mg/10 ml/kg
Protocol: Each Compound (Example Nos. 7 and 8) was administered orally to ICR mice (7 animals per group) as a test compound. […] Each test compound was suspended in 0.5% CMC—Na solution and given orally to the animal at a dose of 300 mg/10 ml/kg.

SMILES: Nc1cccc(-n2c(=O)c(CCCc3ccncc3)cc3cccnc32)c1 [Example No. 7, 1-(3-Aminophenyl)-3-[3-(pyridin-4-yl)propyl]-1,8-naphthyridin-2(1H)-one]
- ED50 [1]: 1.1 mg/kg
- IC50 [2]: 0.23 µM
- ED50 [3]: 0.45 mg/kg
- Emetic actions at asthmatic response-inhibitory ED50 level [4]: no observation for emetic actions
- Body weight gain [5]: No reduction of body weight gains was observed
- Mortality [5]: None of the animals were died
- Other parameters (general health conditions) [5]: no abnormality was observed
